“Also recorded” adds a separate entry of the source.
Tests used:
healthy volunteers [1] = test: Peripheral effects of Compound 03-5 (heart rate, glucose, potassium, tachycardia, tremor, palpitations) with nadolol; type: in vivo, human
Experimental: Data are presented as individual observations for all available subjects.
(§1) On all dosing days, study drug(s) were administered orally after an overnight fast of at least 8 hours.
(§2) Routine measures of ECG, vital signs, safety labs, physical exams and plasma sample collections for analysis of drug pharmacokinetics (PK) were undertaken according to the Schedule of Events (Table 1).
(§3) In Cohort D2, 8 healthy volunteers aged 55-75 years were admitted on Day −1 for a 5-day confinement period at the research facility. […] Subjects remained in-residency until all study procedures are completed on Day 4. • ? Compound 03-5 dose administration. Compound 03-5 was administered as escalating doses on Day 1 (1 mg), Day 2 (3 mg) and Day 3 (10 mg). CANTAB was conducted twice in all subjects on the day prior to start of dosing (Day −1) to familiarize subjects with the platform, and prior to dosing and approximately 3 hours after Compound 03-5 administration on Days 1, 2, and 3.

healthy volunteers [2] = test: Heart rate by triplicate ECG, Compound 03-5 with or without nadolol; type: in vivo, human; conditions: 6 mg Compound 03-5 after pre-administration of 1 mg nadolol
Experimental: Heart rate was measured by triplicate ECG recordings. Data are presented as means changes from time-matched measures recorded on the day before the first dose of study drug (Day −1).
as §1, §2

[3] = tested on: healthy volunteers aged 55-75 years; test: CANTAB cognition battery, Cohort D2; type: in vivo, human; conditions: Compound 03-5 1, 3, 10 mg once daily, 2 h after 3 mg nadolol
Experimental: Data are presented as mean changes from the within-day pre-dose assessment.
as §3

human subjects = test: Cerebral blood flow after a single dose of clenbuterol and/or nadolol, or pindolol (Example 1); type: in vivo
healthy volunteers [4] = test: Cerebral blood flow by ASL MRI in healthy volunteers (Example 6)
Experimental: In the 4 cohorts of healthy volunteers, study drug was administered as follows:
All subjects received single oral dose of 20 μg clenbuterol on Day 1, and a single oral dose of 40 μg clenbuterol on Day 8, with ASL MRI scans before and 3 hours after dosing on both days.
All subjects received a single oral dose of 80 μg clenbuterol on Day 1, with ASL MRI scans before, and 3 hours 1 day and 2 days after clenbuterol administration to evaluate the longevity of the ASL MRI signal
ASL MRI scans were conducted before and 3 hours after clenbuterol administration on Day 1 and Day 7.
ASL MRI scans were conducted before and 3 hours after clenbuterol administration on Day 2 and Day 9.
All scans were conducted using pseudo continuous ASL MRI. Only subjects with no contraindications to being in a strong magnetic field were evaluated by MRI. Participants were positioned comfortably and supine in the head coil to minimize any motion during the scan with proper back support, and support under the knees for comfort and to reduce motion in the scan, and the head was centered in the head coil and velcro straps or foam padding were used to reduce motion.
Imaging was performed on a GE Signa PET-MR 3T system.
For accurate quantitative measurements of brain structures a high-resolution T1-weighted, 3D volumetric sequences (e.g., MP-RAGE, IR-FSPGR) in the sagittal plane. Scan parameters of the pCASL sequence were: straight axial/transversal slices, labeling duration=1.8s, post-labeling delay=2.0 s, 15-20 cm slab thickness, pCASL average labeling gradient 1 mT/m, pCASL slice selective labelling gradient 10 mT/m, pASL TI1 (QUIPSS II Saturation Time) 800 ms, pASL labeling slab thickness 15-20 cm, 70 volumes, spatial resolution 3 mm in-plane/5 mm through-plane/gap 1 mm, 3D RARE stack-of-spiral or 3D GRASE 4-15 ms readouts, turbo-factor of 8 to 12; echo train of up to 300 ms, 2D EPI Single shot, minimum echo time, and duration 5 min.
Multiple ROIs were evaluated including whole brain, cortex, subcortical, thalamus, amygdala, hippocampus, and cerebellum which were chosen due to their relevance for cognition or alertness, and the periaqueductal grey for its relevance to motor control. Grey matter (GM) masking was applied for reporting of CBF in the GM of these ROIs.
Regional mean CBF values were extracted for each ROI and subsequently, the CBF for each region was compared before and after administration of clenbuterol.
Baseline/Predose versus Postdose change (%) for each subject and each region was calculated as 100*(Postdose_CBF−Baseline_CBF)/(Baseline_CBF). For each region, the cohort summary of CBF change (=mean relative displacement, MRD) was described by the group mean and standard deviation of the individual CBF changes.

subjects with MCI or PD = test: Cerebral blood flow by ASL MRI in subjects with MCI or PD (Example 6); type: in vivo, human; conditions: for CBF MRD in the hippocampus, repeat dose comparison: 80 μg clenbuterol without nadolol; for CBF mean (±SEM) MRD in hippocampus / CBF mean (±SEM) MRD in whole brain: Day 9, N=4
[5] = ASL MRI cerebral perfusion, CuraSen study CLIN-002; type: in vivo; conditions: CST-103 80 and 160 μg
From the text: (§4) It was hypothesized that by improving cerebral perfusion, particularly in areas of the brain that are relevant for symptoms that are commonly found in PD and MCI, the administration of a β-AR agonist would have a positive effect on clinically relevant symptoms such as memory and cognition.

subjects = test: Visual verbal learning test (VVLT); type: in vivo, human; conditions: for effect on the VVLT (learning and memory): crossover study, 3 agents plus placebo
Experimental: Subjects are presented 30 words on a screen, one at a time, for 1 second with a 1-second interval between words over a total of 1 minute. This is repeated in 3 trials. After each trial, subjects are asked to recall as many words as they can. […] Since this was a crossover study, everyone who completed Part A was dosed with the 3 agents plus placebo.

[6] = Plasma pharmacokinetics of clenbuterol and nadolol (Example 6); conditions: human, in vivo
From the text: (§5) Pharmacokinetic (PK) parameters were computed from the individual plasma drug concentrations using a non-compartmental approach.

[7] = tested on: healthy volunteers and subjects with MCI or PD; test: Safety and tolerability (TEAEs, heart rate, blood pressure, labs), Example 6; conditions: for mean increase in supine heart rate from baseline: no nadolol
Experimental: (§6) Safety and tolerability were evaluated by questioning for adverse events (AEs), triplicate 12-lead ECGs, laboratory safety tests on urine and blood with multiple chemistry panels including potassium, blood glucose levels, vital sign measurements, and physical examinations at regular time-points during the study.

healthy subjects [8] = test: Adaptive tracking test; type: in vivo, human; conditions: single dose 160 μg clenbuterol
From the text: Adaptive tracking measures visuomotor coordination and vigilance. In this test, the subject uses a joystick to move a small dot so that it stays within a continuously moving circle on a computer screen (Boland 1984). During the test, the speed of the circle is adjusted in response to the subject's ability to keep the dot in the circle, ensuring that the test is adapted to the individual subject. […] The improvement shown by subjects is in the same range as that seen with subjects treated with the acetylcholinesterase inhibitor donepezil, which is in clinical use for the treatment of mild to moderate AD (Groeneveld 2016).

healthy subjects [9] = test: Cognitive performance, CuraSen study CLIN-003; type: in vivo, human; conditions: daily dose of 80 μg CST-103, healthy subjects, preliminary data
From the text: as §4

healthy subjects [10] = test: Cerebral perfusion by ASL MRI after single doses of clenbuterol (Example 3); type: in vivo, human
Experimental: In a clinical study, healthy subjects were administered doses of clenbuterol ranging from 20 to 160 μg and ASL MRI was conducted prior to and after dosing with an objective to ascertain whether this neuroimaging method enables the detection of a clinically relevant CNS signal.
In a region of interest (ROI) analysis focusing on the hippocampus, which is well understood to be affected in neurodegenerative disorders, a single dose of 80 μg of clenbuterol causes a robust increase in perfusion (see FIG. 7). […] Our hypothesis is that by improving cerebral perfusion, particularly in areas of the brain that are relevant for symptoms that are commonly found in neurodegenerative diseases such as PD and AD, the administration of a β-AR agonist (such as a β-agent) will have a positive effect on clinically relevant symptoms such as memory and cognition.

[11] = tested on: healthy volunteers and subjects with MCI or PD; conditions: in vivo
Experimental: as §6

[12] = Prior CuraSen studies of low-dose nadolol (CST-107) on peripheral β2-AR agonist effects; conditions: 1 mg nadolol (CST-107), co-administered with 80 μg CST-103
clinical = conditions: human, in vivo; for Cmax: po
From the text: as §5

[13] = 80 μg clenbuterol, absence of nadolol
[14] = 80 μg clenbuterol, presence of 1 mg nadolol
[15] = doses of 80 and 160 μg clenbuterol

CC(C)(C)NC[C@H](O)c1cccc(C#N)n1 [Compound 03-5, (S)-6-(2-(tert-butylamino)-1-hydroxyethyl)picolinonitrile]
hypokalemia (blood potassium levels) (healthy volunteers [1]; Compound 03-5 monotherapy 0.3 mg-6 mg, Cohorts A1-A5): Dose-dependent increases in hypokalemia | mean maximum increase in heart rate (healthy volunteers [2]): 7 beats per minute | performance in the CANTAB cognition battery [3]: improvements in performance in the CANTAB cognition battery were observed

CC(C)(C)NCC(O)c1cc(Cl)c(N)c(Cl)c1 (stereo not drawn) [clenbuterol]
cerebral blood flow (CBF) relative to baseline (human subjects; single dose clenbuterol 160 μg): robust global increase in cerebral blood flow (CBF); also recorded: positive increase in cerebral blood flow | cerebral blood flow (CBF) relative to baseline (human subjects; single dose clenbuterol 160 μg and nadolol 5 mg): robust global increase in cerebral blood flow (CBF) | cerebral blood flow (CBF) relative to baseline (human subjects; single dose clenbuterol 30 to 160 μg (nadolol 5 mg in some subjects), tracked 3 days): robust global increase in cerebral blood flow (CBF) | CBF mean (±SEM) percent relative displacement (MRD) from baseline in the hippocampus (healthy volunteers [4]; 20 μg clenbuterol, no nadolol (first value of the list)): −1.7±1.3% | CBF mean SEM MRD from baseline (healthy volunteers [4]; 160 μg clenbuterol about 2.5 h after 5 mg nadolol (Day 9)): 14.0±6.5% | CBF mean (±SEM) percent relative displacement (MRD) from baseline in the hippocampus (healthy volunteers [4]; 160 μg clenbuterol in the absence of nadolol): 28.5±4.1% | CBF by ASL MRI (healthy volunteers [4]; 20, 40, 80 and 160 μg clenbuterol, absence of nadolol): dose-dependent increase in CBF | CBF change from baseline (healthy volunteers [4]; 3 hours after single dose of 80 μg clenbuterol): increases in CBF from baseline are evident | CBF change from baseline (healthy volunteers [4]; 24 hours after single dose of 80 μg clenbuterol): decreased but still evident | CBF change from baseline (healthy volunteers [4]; 48 hours after single dose of 80 μg clenbuterol): returned to baseline | CBF MRD in the hippocampus, repeat dose comparison (subjects with MCI or PD; Day 2, 4 subjects): 17.55±6.37% | CBF MRD in the hippocampus, repeat dose comparison (subjects with MCI or PD; Day 9, 4 subjects): 14.72±10.56% | CBF mean (±SEM) MRD in hippocampus (subjects with MCI or PD; [13]): 14.7±10.6% | CBF mean (±SEM) MRD in whole brain (subjects with MCI or PD; [13]): 4.8±12.6% | CBF mean (±SEM) MRD in hippocampus (subjects with MCI or PD; [14]): 12.5±5.7% | CBF mean (±SEM) MRD in whole brain (subjects with MCI or PD; [14]): 5.9±8.6% | CBF in multiple brain regions incl. hippocampus and thalamus (subjects with MCI or PD; 80 μg clenbuterol, with and without pre-administration of 1 mg nadolol): Significant increases in CBF | cerebral perfusion (ASL MRI) [5]: robust global increase in cerebral perfusion | increase in cerebral perfusion in the hippocampus [5]: up to 28% | increase in cerebral perfusion in the thalamus [5]: up to 15% | effect on the VVLT (learning and memory) (subjects): positive effects on the VVLT | VVLT improvement in correctly recalled words (subjects; immediate and delayed recall, crossover study vs placebo): 1.5 to 2 correctly recalled words | half-life [6]: 12 to 31 h | decrease in heart rate from baseline ([7]; 3 hours after 160 μg clenbuterol with pre-administration of 5 mg nadolol): 2.75 bpm | overall safety and tolerability ([7]; all subjects): overall safe and well tolerated | severity of TEAEs ([7]; all subjects enrolled): mild-to-moderate | effects on supine, sitting or standing blood pressure ([7]; clenbuterol in the absence or presence of nadolol): no clinically meaningful effects | subjects with TEAEs considered related to clenbuterol ([7]; healthy volunteers): 12/25 | mean increase in supine heart rate from baseline ([7]; healthy volunteers, 3 hours after 20 μg clenbuterol): 7.5 bpm | mean increase in supine heart rate from baseline ([7]; healthy volunteers, 3 hours after 40 μg clenbuterol): 7.5 bpm | mean increase in supine heart rate from baseline ([7]; healthy volunteers, 3 hours after 80 μg clenbuterol): 9.2-12.38 bpm | mean increase in supine heart rate from baseline ([7]; healthy volunteers, 3 hours after 160 μg clenbuterol): 30.5 bpm | increase in heart rate ([7]; subjects with MCI or PD, 80 μg clenbuterol): 10.67-14.65 bpm | subjects with TEAEs considered related to clenbuterol ([7]; subjects with neurodegenerative disease): 6/8 | performance in adaptive tracking (percent time dot kept within moving circle) (healthy subjects [8]): improved adaptive tracking; also recorded: performance in adaptive tracking improves | cognition as measured by adaptive tracking and word recall (healthy subjects [8]; healthy subjects, preliminary data): improves cognition | cognitive performance (healthy subjects [9]): improves cognitive performance | cerebral perfusion as measured by CBF (healthy subjects [10]; clenbuterol dose of 40 μg): minimal increase | cerebral perfusion as measured by CBF (healthy subjects [10]; clenbuterol doses below 30 μg): do not produce significant cerebral perfusion increases | improvements in perfusion in brain areas relevant to neurodegenerative disorders (healthy subjects [10]; [15]): ~25% | increases in cerebral perfusion in hippocampus and thalamus (healthy subjects [10]; [15]): 20% to 25 | increase in hippocampal perfusion, average (healthy subjects [10]; single dose 80 μg clenbuterol, 6 healthy subjects aged 44-52): 25% | cerebral perfusion (ASL MRI) (healthy subjects [10]; single dose 160 μg clenbuterol, healthy subjects): robust global increase in cerebral perfusion

CC(C)(C)NCC(O)COc1cccc2c1CC(O)C(O)C2 (stereo not drawn) [nadolol]
effect of nadolol on Compound 03-5 increase in heart rate and other peripheral effects (hyperglycemia, hypokalemia) (healthy volunteers [1]; Cohort D1, 1 mg nadolol pre-administered, Compound 03-5 orally up to 6 mg): substantially attenuated | effect of nadolol on peripheral effects of Compound 03-5 (heart rate, glucose, potassium, tachycardia, tremor, palpitations) (healthy volunteers [1]; Cohort D1, nadolol 1 mg up to 40 mg pre-administered, Compound 03-5 3-12 mg): blocked the peripheral effects | effect of nadolol on peripheral effects of Compound 03-5 on heart rate, etc. (healthy volunteers [1]; Cohort D2, nadolol 3 mg pre-administered, Compound 03-5 1-10 mg): similarly blocked the peripheral effects | effects of Compound 03-5 on blood glucose and potassium, tachycardia, tremor and palpitations (healthy volunteers [1]; pre-administration of 1 mg nadolol, 6 mg Compound 03-5): Concomitant attenuation | hypokalemia caused by Compound 03-5 (healthy volunteers [1]; subjects dosed with nadolol 1-40 mg, Cohorts D1 and D2): attenuation of hypokalemia | increase in heart rate after 80 μg clenbuterol [11]: effectively blocked | attenuation of peripheral β2-AR agonist effects (heart rate, palpitations, tremors, potassium, glucose) [12]: could attenuate these peripheral effects; also recorded: sufficient to inhibit peripheral β2-AR agonist mediated effects | half-life (clinical): 7 to 13 h | Cmax (clinical; 1 mg): 1 to 1.5 ng/mL | Cmax (clinical; 4 mg): 2.8 to 4 ng/mL | TEAEs considered related to nadolol ([7]; all subjects enrolled): No TEAEs | side effects of β2-agonist (increased heart rate, tremor, palpitations) ([7]; pre-administration of nadolol): mostly eliminated

CC(C)NCC(O)COc1cccc2[nH]ccc12 (stereo not drawn) [pindolol]
effect on the VVLT (learning and memory) (subjects): detrimental effect

CC(C)(C)NCC(O)c1ccc(O)c(CO)c1 (stereo not drawn) [salbutamol]
effect on the VVLT (learning and memory) (subjects): positive effects on the VVLT

From patent US20260207568A1, “COMPOSITIONS AND METHODS FOR IMPROVING NEUROLOGICAL DISEASES AND DISORDERS” (CuraSen Therapeutics, Inc., priority 2022, published 2026)
